Experimental data: ChEMBL document CHEMBL5236638, “Optimization of First-in-Class Dual-Acting FFAR1/FFAR4 Allosteric Modulators with Novel Mode of Action” (ACS Med Chem Lett, 2022)

Experiments:
Assay type in all cases: cell-based
[1] = target: T1, Free fatty acid receptor 4 (Homo sapiens) (UniProt Q5NUL3); assay: Agonist activity at N-terminal FLAG tagged human FFAR4 transfected in African green monkey COS-7 cells assessed as accumulation of inositol phosphate at 10 uM incubated for 90 mins by TopCount NXT counter based analysis relative to control
T1 sequence (whole entry): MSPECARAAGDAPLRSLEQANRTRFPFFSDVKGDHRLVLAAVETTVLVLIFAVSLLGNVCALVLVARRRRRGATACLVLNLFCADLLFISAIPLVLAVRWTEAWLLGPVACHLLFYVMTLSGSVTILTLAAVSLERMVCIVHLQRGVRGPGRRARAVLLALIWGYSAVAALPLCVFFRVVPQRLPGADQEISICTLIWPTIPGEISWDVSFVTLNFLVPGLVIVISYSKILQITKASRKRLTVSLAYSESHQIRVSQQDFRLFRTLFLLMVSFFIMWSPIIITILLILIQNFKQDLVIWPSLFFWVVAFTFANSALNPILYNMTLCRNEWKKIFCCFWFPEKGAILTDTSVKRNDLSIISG

[2] = target: T2, Free fatty acid receptor 4 (Homo sapiens, UniProt Q5NUL3); assay: Agonist activity at N-terminal FLAG tagged human FFAR4 transfected in African green monkey COS-7 cells assessed as accumulation of inositol phosphate incubated for 90 mins by TopCount NXT counter based analysis
T2 sequence (Q5NUL3 whole entry): T1 sequence (whole entry)

[3] = target: Free fatty acid receptor 1 (Homo sapiens, UniProt O14842); assay: Agonist activity at N-terminal FLAG tagged human FFAR1 transfected in African green monkey COS-7 cells assessed as accumulation of inositol phosphate incubated for 90 mins by TopCount NXT counter based analysis
Sequence of Free fatty acid receptor 1 (O14842 whole entry): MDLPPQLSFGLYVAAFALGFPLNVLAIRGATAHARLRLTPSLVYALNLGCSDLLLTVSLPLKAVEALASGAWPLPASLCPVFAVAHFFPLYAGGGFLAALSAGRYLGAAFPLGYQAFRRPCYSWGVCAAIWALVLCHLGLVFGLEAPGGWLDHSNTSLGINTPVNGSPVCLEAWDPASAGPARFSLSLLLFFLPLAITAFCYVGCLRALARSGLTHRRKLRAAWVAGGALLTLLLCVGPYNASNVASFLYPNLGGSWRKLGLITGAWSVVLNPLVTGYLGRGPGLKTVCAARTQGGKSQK

Compound	Emax ([1]; filed as agonist) [%]	EC50 [2] [nM]	EC50 [3] [nM]	Emax [1] [%]
Cc1cc(OCc2nc(N)nc(Nc3ccc(C)c(Cl)c3)n2)cc(N2CCCC2=O)c1	50	600	20	–
Cc1cc(OCc2nc(N)nc(NCCc3ccccc3C(F)(F)F)n2)cc(N2CCCC2=O)c1	–	10	12	38
Cc1ccc(Nc2nc(N)nc(COc3cc(N4CCCC4=O)ccc3C(F)(F)F)n2)cc1Cl	41	11900	20100	–
Cc1cc(=O)oc2cc(OCc3nc(N)nc(Nc4ccc(C5CC5)cc4)n3)ccc12	–	–	700	–
Cc1cc(OCc2nc(N)nc(NCCc3c(C)cccc3C)n2)cc(N2CCCC2=O)c1	44	72	25	–
Cc1cc(=O)oc2cc(OCc3nc(N)nc(Nc4ccc(Cl)c(Cl)c4)n3)ccc12	–	360	780	–
Cc1ccc(Nc2nc(N)nc(COc3cc(Cl)cc(N4CCCC4=O)c3)n2)cc1Cl	43	150	160	–
Cc1cc(=O)oc2cc(OCc3nc(N)nc(Nc4ccc(Cl)cc4)n3)ccc12	–	–	32500	–
Cc1cc(OCc2nc(N)nc(NCCc3cccc(OC(F)F)c3)n2)cc(N2CCCC2=O)c1	–	10	5	28
Cc1ccc(Nc2nc(N)nc(COc3cc(F)cc(N4CCCC4=O)c3)n2)cc1Cl	47	1200	1800	–
Cc1ccc(Nc2nc(N)nc(COc3ccc4c(C(F)F)cc(=O)oc4c3)n2)cc1	–	1570	3180	27
Cc1cc(OCc2nc(N)nc(NCCc3ccccc3F)n2)cc(N2CCCC2=O)c1	–	–	11	–
Cc1ccc(Nc2nc(N)nc(COc3cccc(N4CCCCC4=O)c3)n2)cc1Cl	66	16600	22400	–
CCc1ccc(Nc2nc(N)nc(COc3ccc4c(C)cc(=O)oc4c3)n2)cc1Cl	48	560	160	–
Cc1cc(OCc2nc(N)nc(NCCc3c(F)cccc3F)n2)cc(N2CCCC2=O)c1	46	9	3	–
Cc1cc(OCc2nc(N)nc(NCCc3ccccc3Cl)n2)cc(N2CCCC2=O)c1	–	3	6	33
Cc1ccc(Nc2nc(N)nc(COc3cc(OC(F)(F)F)cc(N4CCCC4=O)c3)n2)cc1Cl	–	2190	–	38

Compound	Emax ([1]; filed as agonist) [%]	EC50 [2] [nM]	EC50 [3] [nM]	Emax [1] [%]
Cc1ccc(Nc2nc(N)nc(COc3ccc(Cl)c(N4CCCC4=O)c3)n2)cc1Cl	42	3030	2450	–
Cc1ccc(Nc2nc(N)nc(COc3cccc(N4CCCC4=O)c3F)n2)cc1Cl	–	–	14100	–
Cc1c(Cl)cc(Nc2nc(N)nc(COc3ccc4c(C)cc(=O)oc4c3)n2)cc1Cl	68	1270	600	–
Cc1cc(OCc2nc(N)nc(NCCc3ccccc3C)n2)cc(N2CCCC2=O)c1	–	17	11	35
Cc1cc(OCc2nc(N)nc(NCCc3cccc(C#N)c3)n2)cc(N2CCCC2=O)c1	–	552	831	17
Cc1cc(=O)oc2cc(OCc3nc(N)nc(Nc4ccc(F)cc4)n3)ccc12	–	–	18300	–
COc1ccc(Cl)cc1CCNc1nc(N)nc(COc2cc(C)cc(N3CCCC3=O)c2)n1	–	53	54	29
Cc1cc(=O)oc2cc(OCc3nc(N)nc(Nc4ccc5c(c4)COC5)n3)ccc12	–	–	1330	–
Cc1ccc(Nc2nc(N)nc(COc3ccc4c(C)cc(=O)oc4c3)n2)cc1C	–	–	210	–
COc1ccc(OCc2nc(N)nc(Nc3ccc(C)c(Cl)c3)n2)cc1N1CCCC1=O	53	31400	20200	–
COc1cc(OCc2nc(N)nc(Nc3ccc(C)c(Cl)c3)n2)cc(N2CCCC2=O)c1	43	600	1800	–
Cc1cccc(CCNc2nc(N)nc(COc3cc(C)cc(N4CCCC4=O)c3)n2)c1	–	–	7	–
Cc1cc(OCc2nc(N)nc(NCCc3cc(Cl)cc(Cl)c3)n2)cc(N2CCCC2=O)c1	49	7	4	–
Cc1ccc(Nc2nc(N)nc(COc3cc(C#N)cc(N4CCCC4=O)c3)n2)cc1Cl	–	14300	4170	26
Cc1cc(OCc2nc(N)nc(NCCc3cccc(Cl)c3Cl)n2)cc(N2CCCC2=O)c1	–	9	3	31
Cc1cc(OCc2nc(N)nc(NCCc3cccc(C(F)(F)F)c3)n2)cc(N2CCCC2=O)c1	–	10	12	35
Cc1cc(=O)oc2cc(OCc3nc(N)nc(NCc4ccc(F)cc4)n3)ccc12	–	–	7820	–
